In patent publication US20170131285A1, “METHODS AND COMPOSITIONS FOR DIAGNOSING, MONITORING AND TREATING CANCER” (INSERM (Institut National de la Sante et de la Recherche …, priority 2014, published 2017):
Where no end group is shown, it is not given here.

System: MSC2 cells
Test: IL-6 ELISA in supernatant of MSC2 cells incubated with exosomes
Format: cell-based
Conditions: exosomes from B16F10, 24 h
Protocol: FIG. 4: A8 blocks the activation and proliferation of MSC2 cells. (A) IL-6 concentration was determined by ELISA in the supernatant of MSC2 cells incubated or not for 24 h with exosomes (from B16F10) in the presence or absence of A8. *, p<0.05, (n=3). (B) A representative image of a western blot showing the kinetics of STAT3 phosphorylation in MCS2 cells incubated or not with exosomes isolated from B16F10, CT26 or HCT116 cells together with a peptide control (TDE) or A8 (TDE/A8). 14-3-3 is used as a loading control. In the right panels, the amount of pSTAT3 was quantified by densitometric analysis. *, p<0.05, n=4.
MSC2 cells were incubated alone or co-incubated with exosomes from B16F10 cells and/or A8 (during 24 h). Then, the supernatant was collected and centrifuged at 300 g at 4° C. for 5 min and analyzed with IL-6 ELISA assay (BD biosciences) according to the manufacturers' protocol.
Supernatants, collected from MSC2 or MDSC or co-cultured cells incubated alone or with exosomes from B16F10 cells and/or A8 (8 or 16 μM) were analyzed with IL-6, IL-10 and IFN gamma ELISA assay (BD biosciences) according to the manufacturers' protocol.

SPWPRPTY [Aptamer A8, SPWPRPTY]
IL-6 production by MSC2 stimulated by tumor-derived exosomes: abrogated
